Literature values as cited in US20040220167A1, “Methods of treating neuralgic pain” (priority 2003, published 2004).

Conditions: in vivo

- fraction cleared via the kidneys: Less than 1%
- mean half-life: 5 to 6 h
- primary clearance route: primarily cleared through bile and feces
Substance: Verteporfin
